Measured values taken from ChEMBL document CHEMBL3885861, “Open TG-GATES”.

Species: Rattus norvegicus
Test: Open TG-GATES - Regimen: Single
Type: toxicity, organism-based, Sprague-Dawley
Design: regimen Single, gender Male, age 6 weeks
Details: in vivo, po, 0 mg/kg, route gavage, dose level Control; for APTT / Bas / Eos / Fbg / Hb / Ht / Lym / MCH / MCHC / MCV / Mono / Neu / PT / Plat / RBC / Ret / WBC: tissue Blood; for KIDNEY_L / KIDNEY_R / KIDNEY_TOTAL: tissue Kidney; for LIVER: tissue Liver; for A/G / ALP / ALT / AST / BUN / CRE / Ca / Cl / DBIL / GLC / IP / K / LDH / Na / PL / RALB / TBIL / TC / TG / TP / gamma-GTP: tissue Plasma

Work on `C[C@]12CCC(=O)C=C1CC[C@@H]1[C@@H]2CC[C@@]2(C)[C@H]1CC[C@]2(C)O` [METHYLTESTOSTERONE] yielded a TERMINAL_BW (3 h) of 202.4 g, an APTT (3 h) of 15.7 s and a Bas (3 h) of 0%. The Eos (3 h) was 1%, the Fbg (3 h) was 277 mg/dL and the Hb (3 h) was 13.3 g/dL. The Ht (3 h) was 39%, the Lym (3 h) was 74.2% and the MCH (3 h) was 21.5 pg. It also gave an MCHC (3 h) of 34%, an MCV (3 h) of 63.3 fL and a Mono (3 h) of 3.6%. For the same compound, the Neu (3 h) was 20.6%, the PT (3 h) was 13.2 s and the Plat (3 h) was 111.8 x10_4/uL. It also gave an RBC (3 h) of 616.6 x10_4/ul, a Ret (3 h) of 8.5% and a WBC (3 h) of 71.2 x10_2/uL. For the same compound, the KIDNEY_L (3 h) was 0.9 g, the KIDNEY_R (3 h) was 0.9 g and the KIDNEY_TOTAL (3 h) was 1.8 g. For the same compound, the LIVER (3 h) was 8.7 g, the A/G (3 h) was 0.9 and the ALP (3 h) was 1644.6 IU/L. For the same compound, the ALT (3 h) was 45.4 IU/L, the AST (3 h) was 80.2 IU/L and the BUN (3 h) was 9.6 mg/dL. It also gave a CRE (3 h) of 0.2 mg/dL, a Ca (3 h) of 10.9 mg/dL and a Cl (3 h) of 105.6 meq/L. It also gave a DBIL (3 h) of 0.01 mg/dL, a GLC (3 h) of 182.8 mg/dL and an IP (3 h) of 9.8 mg/dL. The K (3 h) was 4.4 meq/L, the LDH (3 h) was 59.4 IU/L and the Na (3 h) was 142 meq/L. The PL (3 h) was 136.4 mg/dL, the RALB (3 h) was 2.6 g/dL and the TBIL (3 h) was 0.038 mg/dL. It also gave a TC (3 h) of 86.2 mg/dL, a TG (3 h) of 31.8 mg/dL and a TP (3 h) of 5.5 g/dL. For the same compound, the gamma-GTP (3 h) was 1.6 IU/L, the TERMINAL_BW (6 h) was 202.9 g and the APTT (6 h) was 17.1 s. It also gave a Bas (6 h) of 0%, an Eos (6 h) of 0.8% and a Fbg (6 h) of 299 mg/dL. For the same compound, the Hb (6 h) was 13.1 g/dL, the Ht (6 h) was 38.7% and the Lym (6 h) was 75.6%. The MCH (6 h) was 21.5 pg, the MCHC (6 h) was 34% and the MCV (6 h) was 63.4 fL. For the same compound, the Mono (6 h) was 3.6%, the Neu (6 h) was 19.4% and the PT (6 h) was 13.2 s. For the same compound, the Plat (6 h) was 112.5 x10_4/uL, the RBC (6 h) was 612 x10_4/ul and the Ret (6 h) was 8.2%. The WBC (6 h) was 68.1 x10_2/uL, the KIDNEY_L (6 h) was 0.9 g and the KIDNEY_R (6 h) was 0.9 g. The KIDNEY_TOTAL (6 h) was 1.7 g, the LIVER (6 h) was 8.5 g and the A/G (6 h) was 0.9. For the same compound, the ALP (6 h) was 1516.2 IU/L, the ALT (6 h) was 41.8 IU/L and the AST (6 h) was 72.4 IU/L. The BUN (6 h) was 9 mg/dL, the CRE (6 h) was 0.2 mg/dL and the Ca (6 h) was 10.8 mg/dL. For the same compound, the Cl (6 h) was 108 meq/L, the DBIL (6 h) was 0.012 mg/dL and the GLC (6 h) was 185.4 mg/dL. For the same compound, the IP (6 h) was 10.1 mg/dL, the K (6 h) was 4.1 meq/L and the LDH (6 h) was 65.6 IU/L. For the same compound, the Na (6 h) was 142.2 meq/L, the PL (6 h) was 133.4 mg/dL and the RALB (6 h) was 2.6 g/dL. For the same compound, the TBIL (6 h) was 0.046 mg/dL, the TC (6 h) was 79.8 mg/dL and the TG (6 h) was 40.6 mg/dL. For the same compound, the TP (6 h) was 5.5 g/dL, the gamma-GTP (6 h) was 1.4 IU/L and the TERMINAL_BW (9 h) was 203.4 g. The APTT (9 h) was 16.8 s, the Bas (9 h) was 0% and the Eos (9 h) was 1%. For the same compound, the Fbg (9 h) was 285.6 mg/dL, the Hb (9 h) was 13.2 g/dL and the Ht (9 h) was 38.5%. The Lym (9 h) was 74.4%, the MCH (9 h) was 21.3 pg and the MCHC (9 h) was 34.2%. For the same compound, the MCV (9 h) was 62.4 fL, the Mono (9 h) was 3% and the Neu (9 h) was 21.2%. It also gave a PT (9 h) of 12.8 s, a Plat (9 h) of 108.1 x10_4/uL and an RBC (9 h) of 616.6 x10_4/ul. For the same compound, the Ret (9 h) was 8.5%, the WBC (9 h) was 59.4 x10_2/uL and the KIDNEY_L (9 h) was 0.9 g. The KIDNEY_R (9 h) was 0.9 g, the KIDNEY_TOTAL (9 h) was 1.8 g and the LIVER (9 h) was 7.9 g. The A/G (9 h) was 0.9, the ALP (9 h) was 1387.4 IU/L and the ALT (9 h) was 42.2 IU/L. For the same compound, the AST (9 h) was 76.2 IU/L, the BUN (9 h) was 7.4 mg/dL and the CRE (9 h) was 0.2 mg/dL. It also gave a Ca (9 h) of 10.4 mg/dL, a Cl (9 h) of 105.2 meq/L and a DBIL (9 h) of 0.01 mg/dL. It also gave a GLC (9 h) of 171.4 mg/dL, an IP (9 h) of 10.6 mg/dL and a K (9 h) of 4.1 meq/L. For the same compound, the LDH (9 h) was 60.6 IU/L, the Na (9 h) was 141 meq/L and the PL (9 h) was 137.4 mg/dL. The RALB (9 h) was 2.5 g/dL, the TBIL (9 h) was 0.044 mg/dL and the TC (9 h) was 90.2 mg/dL. It also gave a TG (9 h) of 23 mg/dL, a TP (9 h) of 5.4 g/dL and a gamma-GTP (9 h) of 1.4 IU/L. For the same compound, the TERMINAL_BW (24 h) was 210.8 g, the APTT (24 h) was 17.4 s and the Bas (24 h) was 0%. The Eos (24 h) was 1%, the Fbg (24 h) was 275 mg/dL and the Hb (24 h) was 13.2 g/dL. It also gave a Ht (24 h) of 38.6%, a Lym (24 h) of 76% and an MCH (24 h) of 21.7 pg. It also gave an MCHC (24 h) of 34.2%, an MCV (24 h) of 63.6 fL and a Mono (24 h) of 2.8%. For the same compound, the Neu (24 h) was 19.6%, the PT (24 h) was 12.9 s and the Plat (24 h) was 111.5 x10_4/uL. The RBC (24 h) was 607.4 x10_4/ul, the Ret (24 h) was 8.1% and the WBC (24 h) was 74.8 x10_2/uL. For the same compound, the KIDNEY_L (24 h) was 0.9 g, the KIDNEY_R (24 h) was 0.9 g and the KIDNEY_TOTAL (24 h) was 1.9 g. The LIVER (24 h) was 9.8 g, the A/G (24 h) was 0.9 and the ALP (24 h) was 1818.4 IU/L. The ALT (24 h) was 48.4 IU/L, the AST (24 h) was 74.2 IU/L and the BUN (24 h) was 14.8 mg/dL. For the same compound, the CRE (24 h) was 0.2 mg/dL, the Ca (24 h) was 11.1 mg/dL and the Cl (24 h) was 106.2 meq/L. The DBIL (24 h) was 0.02 mg/dL, the GLC (24 h) was 194.2 mg/dL and the IP (24 h) was 8.1 mg/dL. It also gave a K (24 h) of 4.3 meq/L, an LDH (24 h) of 63.4 IU/L and a Na (24 h) of 140.8 meq/L. For the same compound, the PL (24 h) was 149.8 mg/dL, the RALB (24 h) was 2.7 g/dL and the TBIL (24 h) was 0.036 mg/dL. The TC (24 h) was 80.8 mg/dL, the TG (24 h) was 114.6 mg/dL and the TP (24 h) was 5.7 g/dL. It also gave a gamma-GTP (24 h) of 1.4 IU/L.
